{"source": "patent US20020156032A1", "about": "“Inhibition of DNA methyltransferase” (priority 1994, published 2002)", "key": {"DNA MeTase": {"molecular_target": "T1, DNA MeTase (Mus musculus, UniProt P13864)", "T1 construct": "endogenous in cells; host or cells: Y1 cells (parental, pZEM control transfectants and pZαM antisense transfectants)", "T1 sequence (P13864 whole entry)": "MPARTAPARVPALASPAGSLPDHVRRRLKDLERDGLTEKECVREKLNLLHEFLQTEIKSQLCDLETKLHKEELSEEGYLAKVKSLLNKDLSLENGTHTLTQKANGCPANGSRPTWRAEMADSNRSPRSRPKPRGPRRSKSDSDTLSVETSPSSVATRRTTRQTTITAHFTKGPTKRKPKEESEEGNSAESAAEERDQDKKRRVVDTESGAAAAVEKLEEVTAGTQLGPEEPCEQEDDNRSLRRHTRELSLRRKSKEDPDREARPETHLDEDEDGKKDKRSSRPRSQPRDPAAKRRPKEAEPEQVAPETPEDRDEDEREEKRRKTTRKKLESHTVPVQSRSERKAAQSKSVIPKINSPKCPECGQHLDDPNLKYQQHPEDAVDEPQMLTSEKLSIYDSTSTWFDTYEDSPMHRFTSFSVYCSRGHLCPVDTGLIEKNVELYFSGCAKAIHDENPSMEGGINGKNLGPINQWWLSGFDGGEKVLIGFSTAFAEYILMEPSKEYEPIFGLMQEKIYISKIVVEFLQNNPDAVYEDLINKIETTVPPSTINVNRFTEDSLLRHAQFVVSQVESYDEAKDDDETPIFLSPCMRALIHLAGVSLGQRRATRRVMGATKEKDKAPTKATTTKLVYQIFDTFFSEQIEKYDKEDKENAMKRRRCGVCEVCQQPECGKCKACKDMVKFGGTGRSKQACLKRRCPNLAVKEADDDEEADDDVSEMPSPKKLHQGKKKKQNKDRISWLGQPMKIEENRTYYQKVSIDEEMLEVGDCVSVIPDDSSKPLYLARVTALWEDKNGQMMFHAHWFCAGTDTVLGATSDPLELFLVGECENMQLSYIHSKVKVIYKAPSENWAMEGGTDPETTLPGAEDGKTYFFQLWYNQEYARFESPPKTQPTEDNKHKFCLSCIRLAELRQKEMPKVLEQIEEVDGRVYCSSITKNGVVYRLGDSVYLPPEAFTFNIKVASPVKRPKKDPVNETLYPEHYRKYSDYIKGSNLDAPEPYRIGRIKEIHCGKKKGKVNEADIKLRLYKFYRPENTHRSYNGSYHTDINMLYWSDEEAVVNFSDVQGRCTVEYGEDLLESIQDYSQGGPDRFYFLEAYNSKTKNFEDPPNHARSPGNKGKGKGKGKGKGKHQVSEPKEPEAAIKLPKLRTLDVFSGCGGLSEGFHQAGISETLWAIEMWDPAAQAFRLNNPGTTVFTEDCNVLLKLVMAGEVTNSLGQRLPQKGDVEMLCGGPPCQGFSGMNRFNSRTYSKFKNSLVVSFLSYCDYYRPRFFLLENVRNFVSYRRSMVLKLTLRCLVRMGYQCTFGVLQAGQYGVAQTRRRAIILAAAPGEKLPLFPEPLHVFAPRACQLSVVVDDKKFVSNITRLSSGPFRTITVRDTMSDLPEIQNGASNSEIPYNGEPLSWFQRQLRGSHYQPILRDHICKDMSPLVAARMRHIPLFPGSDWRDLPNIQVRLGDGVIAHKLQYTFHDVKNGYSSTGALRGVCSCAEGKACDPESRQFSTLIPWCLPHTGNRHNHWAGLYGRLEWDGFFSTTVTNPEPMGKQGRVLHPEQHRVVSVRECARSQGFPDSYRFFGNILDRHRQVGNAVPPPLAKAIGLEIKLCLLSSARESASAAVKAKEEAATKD", "test": "Nearest neighbour analysis of methylated cytosines in CpG of total genomic DNA", "format": "cell-based, murine", "conditions": "Y1 cells, 0-10 μM for 72 h", "procedure": "To determine whether expression of antisense RNA to the DNA MeTase gene leads to a general reduction in the level of methylation of the genome, we resorted to “nearest neighbour” analysis using [α-32P]-dGTP as previously was performed. This assay enables the determination of the percentage of methylated cytosines residing in the dinucleotide sequence CpG (Razin et al., 1985, IN Biochemistry and Biology of DNA methylation, p. 239, Razin et al., (Ed), Allan R. Liss, Inc. N.Y.). […] Equal amounts of radioactivity were loaded on TLC phosphocellulose plates (Merck) and the 3′ mononucleotides were separated by chromatography in one dimension (iso-butyric acid: H2O:NH4OH in the ratio 66:33:1). The chromatograms were exposed to XAR™ film (Eastman-Kodak) and the spots corresponding to cytosine and 5-methylcytosine were scraped and counted in a β-scintillation counter.\nTransfectants and control DNAs were nicked with DNAaseI, nick translated with a single nucleotide [α-32P]-dGTP using DNA polymerase I and the labelled DNA was digested to 3′ mononucleotide phosphates with micrococal nuclease which cleaves DNA 3′ to the introduced α-32p. The [α-32P] labelled 5′ neighbours of dGMP were separated by chromatography on a TLC plate, the resulting spots for dCMP and dC^metMp were scraped and counted by liquid scintillation. […]"}, "Y1 cells [1]": {"tested_on": "Y1 cells", "test": "Anchorage independent growth in soft agar", "format": "cell-based", "conditions": "0-10 μM for 72 h, then soft agar without drug", "procedure": "Yl cells were maintained as monolayers in F-10 medium which was supplemented with 7.25% heat inactivated horse serum and 2.5% heat inactivated fetal calf serum (Immunocorp, Montreal). All other media and reagents for cell culture were obtained from GIBCO-BRL. Yl cells (1×10^6) were plated on a 150 mm dish (Nunc) 15 hours before transfection. The pZαM expression vector encoding the 5′ of the murine DNA MeTase cDNA (10 ug) was cointroduced into Yl cells with 1 ug of pUCSVneo as a selectable marker by DNA mediated gene transfer using the calcium phosphate protocol (Ausubel et al., 1988, In Current Protocols in Molecular Biology. Wiley and Sons, New York). Selection was initiated 48 hours after transfection by adding 0.25 mg/ml G418 (GIBCO-BRL) to the medium. G418 resistant cells were cloned in selective medium. […] Growth was scored as colonies containing >10 cells, 21 days after plating.\nTo determine whether the expression of antisense to the DNA MeTase results in reversal of the tumorigenic potential the ability of the transfectants to grow in an anchorage independent fashion, which is considered an indicator of tumorigenicity, was also determined. […] Growth on soft agar was quantified by visual examination and presented graphically in FIG. 4C. […]"}, "Y1 cells [2]": {"tested_on": "Y1 cells", "test": "Viability by trypan blue staining under serum deprivation", "format": "cell-based", "conditions": "0-10 μM for 72 h, then 1% horse serum five days without drug", "description": "Factors present in the serum are essential for the survival of many nontumorigenic cells. […] For example, the oncogene bc1-2 is not a stimulator of cell proliferation but rather causes inhibition of apoptosis. […] It was reasoned that as factors in the serum are known to act as survival factors for cells, an apoptotic program could be activated only when these factors are remove. To test whether pZαM transfectants undergo programmed cell death under serum deprived condition, the effects of serum starvation on these transfectants was studied. pZαM transfectants and control Yl pZEM transfectants (3×10^5 per well) were plated in low serum medium (1% horse serum) in six well plates, harvested every 24 hours and tested for viability by trypan blue staining (FIG. 7B).\n1×10^5 Y1 cells were plated in growth medium. Twenty-four hours after plating, the medium was replaced with fresh medium containing various concentrations (0-10 μM) of 5 azaCdR (Sigma). The medium was removed and replaced with fresh medium containing 5 azaCdR every 12 h for a period of 72 h. Following 5 azaCdR treatment the cells were plated onto a six well dish in growth medium (100, 300, 500 cells per well) for cologinecity determinations, in soft agar for determining anchorage independent growth (3×10^3 cells per well) and in low serum (1% horse serum) for five days to determine viability under serum deprived conditions. […]"}}, "data": [{"compound": "Nc1ncn([C@H]2C[C@H](O)[C@@H](CO)O2)c(=O)n1", "note": "[5 azaCdR]", "values": [{"measurement": "level of non-methylated cytosine in CpG", "setting": "DNA MeTase", "result": "increase the level of non-methylated cytosine"}, {"measurement": "growth on soft agar", "setting": "Y1 cells [1]", "result": "drastically inhibit the growth of Y1 cells on soft agar"}, {"measurement": "viability of serum-starved cells", "setting": "Y1 cells [2]", "result": "decrease the viability of serum-starved cells"}]}]}
